The subject of this series is microglia and CNS-infiltrating monocytes. The series can be described thus: mRNA expression in microglia and CNS-infiltrating monocytes from EAE NOD mice. Type of series: in vivo, mouse. From the text: FIGS. 5a-m. B4GALT6 in astrocytes regulates the activation of microglia and CNS-infiltrating monocytes. (a) Heatmap depicting mRNA expression, as determined by nCounter Nanostring analysis, in microglia from naïve or EAE NOD mice treated with PDMP or vehicle. Representative data of three independent experiments. Statistical analysis by Student's t-test. (b) qPCR analysis of ccl5, il1b, opn, nos2, cd40, and H2-Aa gene expression relative to Gapdh. (c, d) Mean normalized expression of genes associated with M1- or M2-phenotype in microglia (Table 3) (c) and Ly6C^high monocytes (d). Statistical analysis by Student's t-test. (e-h) primary microglia were pre-treated with PDMP, LacCer, or vehicle, followed by activation with LPS/IFNγ for 6 h or left un-treated (control) as in (FIG. 3a). mRNA expression was determined by nCounter Nanostring analysis (e, g), and microglial viability was determined (f, h). Representative data of five independent experiments. (i) Mixed glia cultures were treated with mild trypsin/EDTA (T/E) to remove the astrocyte monolayer leaving only the microglia attached to the plate, or left un-treated. Cultures were pre-treated with PDMP, LacCer or vehicle, and activated with LPS/IFNγ for 6 h. Following activation, both cultures were washed, and incubated with mild T/E to remove the astrocytes; thus, leaving only the microglia (MG) attached to the plates. RNA was harvested from microglia treated in the absence [MG (pure)] or presence [MG (mixed)] of astrocytes and gene expression was analyzed by qPCR for the expression ccl2, ccl5 and nos2 relative to gapdh. Data present the relative effect of PDMP (left panel) or LacCer (right panel) pre-treatment on LPS/IFNγ-triggered gene induction, from five independent experiments. Statistical analysis by Student's t-test. (j) Mixed glia were pre-treated with indicated blocking antibodies or appropriate isotype controls (25 μg/ml) and LacCer […] or vehicle control, and then activated with LPS/IFNγ for 6 h. Microglia were isolated as in (i), and microglial-nos2 expression was determined by qRT relative to gapdh and presented as in (i). Representative data of three independent experiments. (k) ChIP analysis of the interaction of NF-κB, and IRF-1 with the csf2 promoter in primary cultured astrocytes. (l, m) Expression csf2 in astrocytes (l) and nos2 in microglial cells (m) isolated form the CNS of chronic EAE NOD mice, 10 days after the i.c.v. injection of astrocytes-specific shRNA lentivirus as in (FIG. 3j). Data from two independent experiments. For all data, means and s.e.m. are shown. *P<0.05, **P<0.01, ***P<0.001 and n.s. not significant.
Mononuclear cells were isolated from the CNS as previously described^50 with minor modifications. […]

On to `CCCCCCCCCC(=O)N[C@H](CN1CCOCC1)[C@H](O)c1ccccc1` [PDMP, D-threo-1-phenyl-2-decanoylamino-3-morpholino-1-propanol], for which, where the note is “NOD EAE”, the “M1-associated genes in microglia and CNS-infiltrating monocytes” value is given as “significant down regulation”; the “M2-associated genes in microglia and CNS-infiltrating monocytes” value was “up-regulation”. Moreover, the “expression of genes associated with microglia activation” value (microglia from NOD EAE progressive phase) is given as “reduced the expression”.
Turning to “shB4galt6: lentivirus-delivered shRNA against b4galt6 (TRCN0000334278; SEQ ID NO:3) (guide CGATGGACTGAACAATTTATTCTCGAGAATAAATTGTTCAGTCCACG)”, the “nos2 expression in microglia” value (chronic NOD EAE, 10 days after i.c.v. shRNA lentivirus) is listed as “decreased nos2 expression”.

The values are drawn from patent publication US9927437B2, “Treating neurodegenerative disease” (THE BRIGHAM AND WOMEN'S HOSPITAL, INC., priority 2013, dated 2018).
